In US8686044B2, “Amide derivative, pest control agent containing the amide derivative, and use of the amide derivative” (Mitsui Chemicals Agro, Inc., priority 2008, dated 2014):

Experiments:
Assay type in all cases: in vivo
[1] = tested on: Helicoverpa armigera; assay: Pesticidal test against Helicoverpa armigera (cabbage leaf disk dip); conditions: foliar, 72 h, concentration 1 ppm, 2-stage larvae, examined after 3 days, 25° C., read-out: pesticidal rate
Summary of the method: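 Cabbage leaf disks were dipped for 30 s in test solution at a set concentration and air-dried. Second-instar larvae were placed one per hole and held at 25 °C, with live and dead counts taken after 3 days. Five larvae per group were tested in two replicates.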

[2] = tested on: Laodelphax striatellus; assay: Pesticidal test against Laodelphax striatellus (rice seedling spray); conditions: 144 h, concentration 100 ppm, 3-stage larvae, examined after 6 days, 25° C., read-out: pesticidal rate
Summary of the method: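 Rice seedlings sprayed with 2.5 ml acetone solution of compound at a predetermined concentration, air-dried, then infested with third-stage Laodelphax striatellus larvae in capped water-containing tubes at 25 °C. Living and dead insects counted after 6 days; ten larvae per group, two replicates.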

[3] = tested on: Spodoptera litura; assay: Pesticidal test against Spodoptera litura (cabbage leaf dip); conditions: foliar, 144 h, concentration 1 ppm, 2-stage larvae, examined after 6 days, 25° C., read-out: pesticidal rate
Summary of the method: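 Cabbage leaf pieces dipped 30 seconds in compound solution at a predetermined concentration and air-dried, then offered to second-stage larvae, five per group in two replicates. Held at 25° C. Living and dead larvae counted after 6 days.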

[4] = tested on: Choristoneura magnanima; assay: Pesticidal test against Choristoneura magnanima (artificial feed dip); conditions: 144 h, concentration 1 ppm, 2-stage larvae, examined after 6 days, 25° C., read-out: pesticidal rate
Summary of the method: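 Thin artificial feed slices dipped 30 s in compound solution at a set concentration, air-dried, then offered to 2nd-stage larvae held at 25° C. Living and dead larvae counted after 6 days; five larvae per group, two replicates.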

[5] = tested on: Plutella xylostella; assay: Pesticidal test against Plutella xylostella (cabbage leaf dip); conditions: foliar, 144 h, concentration 1 ppm, 2-stage larvae, examined after 6 days, 25° C., read-out: pesticidal rate
Summary of the method: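 Cabbage leaf pieces dipped 30 s in test solution at a predetermined concentration, air-dried, then offered to 2nd-instar larvae, five per group in duplicate. Held at 25° C; living and dead larvae counted after 6 days.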

[6] = tested on: Blattella germanica; assay: Pesticidal test against Blattella germanica (petri dish dry film); conditions: 24 h, concentration 100 ppm, female adults, examined after 1 day, 25° C., read-out: pesticidal rate
Method: Pesticidal Test against Blattella germanica
1 ml of an acetone solution in which a test compound had been prepared at a predetermined concentration was added dropwise to a petri dish having a diameter of 9 cm, and air-dried, and then the female adults of Blattella germanica were released and the petri dish was capped. They were left to stand in a thermostatic chamber at 25° C., and the numbers of the living pests and the dead pests were examined after 1 day. The test was carried out with five larvae per group in two replicates.

[7] = tested on: Musca domestica; assay: Pesticidal test against Musca domestica (petri dish dry film); conditions: 24 h, concentration 100 ppm, female adults, examined after 1 day, 25° C., read-out: pesticidal rate
Summary of the method: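 Dry film from 1 ml acetone solution of compound at a predetermined concentration, air-dried in a 9 cm petri dish; female adult flies released and dish capped. Held at 25° C; living and dead counted after 1 day. Five insects per group, two replicates.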

[8] = tested on: Adoxophyes honmai; assay: Pesticidal test against Adoxophyes honmai (artificial feed dip); conditions: 144 h, 2-stage larvae, examined after 6 days, 25° C., read-out: pesticidal rate; for pest or weed control at 1 ppm: concentration 1 ppm
Summary of the method: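 Thin artificial feed slices dipped 30 s in test solution at a predetermined concentration, air-dried, then offered to 2nd-stage larvae. Kept at 25° C; live and dead larvae counted after 6 days. Five larvae per group, two replicates.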

N#Cc1ccc(C(=O)Nc2cccc(C(=O)Nc3c(Br)cc(C(F)(C(F)(F)F)C(F)(F)F)cc3C(F)(F)F)c2F)cc1 [6-1595]
≥ 70%: pest or weed control at 1 ppm [1] | pest or weed control at 100 ppm [2] | pest or weed control at 1 ppm [3] | pest or weed control at 1 ppm [4] | pest or weed control at 1 ppm [5] | pest or weed control at 100 ppm [6]

N#Cc1ccc(C(=O)Nc2cccc(C(=O)Nc3c(I)cc(C(F)(C(F)(F)F)C(F)(F)F)cc3C(F)(F)F)c2F)cc1 [6-1751]
≥ 70%: pest or weed control at 100 ppm [7] | pest or weed control at 1 ppm [1] | pest or weed control at 100 ppm [2] | pest or weed control at 1 ppm [3] | pest or weed control at 1 ppm [4] | pest or weed control at 1 ppm [5] | pest or weed control at 100 ppm [6]

CN(C(=O)c1ccc(Cl)nc1)c1cccc(C(=O)Nc2c(Br)cc(C(F)(C(F)(F)F)C(F)(F)C(F)(F)F)cc2C(F)(F)F)c1 (centres unmarked) [7-389]
≥ 70%: pest or weed control at 100 ppm [7] | pest or weed control at 1 ppm [1] | pest or weed control at 100 ppm [2] | pest or weed control at 1 ppm [3] | pest or weed control at 1 ppm [4] | pest or weed control at 1 ppm [5] | pest or weed control at 100 ppm [6]

CN(C(=O)c1ccccc1)c1cccc(C(=O)Nc2c(I)cc(C(F)(C(F)(F)F)C(F)(F)C(F)(F)F)cc2C(F)(F)F)c1 (centres unmarked) [7-502]
≥ 70%: pest or weed control at 1 ppm [8] | pest or weed control at 1 ppm [1] | pest or weed control at 1 ppm [3] | pest or weed control at 1 ppm [4] | pest or weed control at 1 ppm [5] | pest or weed control at 100 ppm [6]

CN(C(=O)c1ccc(F)cc1)c1cccc(C(=O)Nc2c(I)cc(C(F)(C(F)(F)F)C(F)(F)C(F)(F)F)cc2C(F)(F)F)c1 (centres unmarked) [7-505]
≥ 70%: pest or weed control at 1 ppm [8] | pest or weed control at 1 ppm [1] | pest or weed control at 1 ppm [3] | pest or weed control at 1 ppm [4] | pest or weed control at 1 ppm [5] | pest or weed control at 100 ppm [6]

CN(C(=O)c1ccc(F)cc1)c1cccc(C(=O)Nc2c(Br)cc(C(F)(C(F)(F)F)C(F)(F)F)cc2Br)c1F [7-1107]
≥ 70%: pest or weed control at 100 ppm [7] | pest or weed control at 1 ppm [1] | pest or weed control at 100 ppm [2] | pest or weed control at 1 ppm [3] | pest or weed control at 1 ppm [4] | pest or weed control at 1 ppm [5] | pest or weed control at 100 ppm [6]

CN(C(=O)c1ccc(C#N)cc1)c1cccc(C(=O)Nc2c(Br)cc(C(F)(C(F)(F)F)C(F)(F)F)cc2Br)c1F [7-1125]
≥ 70%: pest or weed control at 1 ppm [1] | pest or weed control at 100 ppm [2] | pest or weed control at 1 ppm [3] | pest or weed control at 1 ppm [4] | pest or weed control at 1 ppm [5] | pest or weed control at 100 ppm [6]

CN(C(=O)c1cccc(C#N)c1)c1cccc(C(=O)Nc2c(Br)cc(C(F)(C(F)(F)F)C(F)(F)F)cc2C(F)(F)F)c1F [7-1594]
≥ 70%: pest or weed control at 1 ppm [8] | pest or weed control at 1 ppm [1] | pest or weed control at 100 ppm [2] | pest or weed control at 1 ppm [3] | pest or weed control at 1 ppm [4] | pest or weed control at 1 ppm [5] | pest or weed control at 100 ppm [6]

CN(C(=O)c1ccc(C#N)cc1)c1cccc(C(=O)Nc2c(Br)cc(C(F)(C(F)(F)F)C(F)(F)F)cc2C(F)(F)F)c1F [7-1595]
≥ 70%: pest or weed control at 1 ppm [1] | pest or weed control at 100 ppm [2] | pest or weed control at 1 ppm [3] | pest or weed control at 1 ppm [4] | pest or weed control at 1 ppm [5] | pest or weed control at 100 ppm [6]

CN(C(=O)c1ccc(Cl)nc1)c1cccc(C(=O)Nc2c(Br)cc(C(F)(C(F)(F)F)C(F)(F)F)cc2C(F)(F)F)c1F [7-1617]
≥ 70%: pest or weed control at 1 ppm [1] | pest or weed control at 100 ppm [2] | pest or weed control at 1 ppm [3] | pest or weed control at 1 ppm [4] | pest or weed control at 1 ppm [5] | pest or weed control at 100 ppm [6]

CN(C(=O)c1ccccc1F)c1cccc(C(=O)Nc2c(I)cc(C(F)(C(F)(F)F)C(F)(F)F)cc2C(F)(F)F)c1F [7-1731]
≥ 70%: pest or weed control at 10 ppm ([8]; concentration 10 ppm) | pest or weed control at 100 ppm [7] | pest or weed control at 1 ppm [1] | pest or weed control at 100 ppm [2] | pest or weed control at 1 ppm [3] | pest or weed control at 1 ppm [5] | pest or weed control at 100 ppm [6]
